From patent publication US3958011A, “Compositions of tri-n-propylacetic acid and salts thereof and treatment of neurological disorders with such compositions” (priority 1972, dated 1976)

Tests used:
mice [1] = experiment: Pentylenetetrazol-induced seizure (anticonvulsant action); assay type: in vivo, mice (OF 1); details: Mus musculus, ip, i.p., 125 mg/kg pentylenetetrazol i.p.
Method: The purpose of this test which is carried out on mice is to determine whether the compounds of the invention, when given preventively by intraperitoneal route, are capable at certain doses of protecting some of the animals against the epileptic seizure produced by an adequate and predetermined dose of pentylenetetrazol which would be 100% fatal in the absence of the compound. The test was carried out on batches of 10 male OF 1 mice weighing about 25 g.

mice [2] = experiment: Maximum electroshock seizure (anticonvulsant action); assay type: in vivo, mice (OF 1); details: for ED50: Mus musculus, ip, 0.25 h, i.p., 15 min after administration, protection of 50% against tonic seizures
Method: This seizure is characterized in the mouse by extension of the back paws for 5 to 10 seconds. The extension is similar to that observed during the tonicoclonic seizures provoked by chemical convulsants such as pentylenetetrazol or strychnine.
The test was carried out on batches of 10 mice of the OF 1 strain weighing about 22 g. […] Fifteen minutes later, each animal received an electric shock of twice threshold intensity (about 60 volts).
This latter value is indicated by the symbol HD50 or hypnotic dose 50 and the efficacy index by the fraction: [formula]

rats = experiment: Anoxic seizure induced by gallamine triiodoethylate (antianoxic properties); assay type: in vivo, rats (OFA); details: 2 millimols/kg
Excerpt: The injection of a sufficient dose of a synthetic curariform substance such as gallamine triiodoethylate provokes in the rat paralysis of the diaphragm. The animal then dies by asphyxia.
Male rats of the OFA strain and weighing about 250 g. were first anesthetized with ether in order to enable tracheotomy to be performed and cortical electrodes to be inserted. Each rat was then maintained under conditions of artificial respiration by means of an appropriate apparatus and a paralysing dose of gallamine triiodoethylate was administered by intraperitoneal route to eliminate spontaneous breathing. The electrocorticogram, the electrocardiogram and the rectal temperature were registered. After a period of 30 minutes during which stabilization of the registrations was obtained the animal was treated with 2 millimols/kg of an oily solution of tri-n-propylacetic acid or an aqueous solution of one of its alkali metal salts. The artificial respiratory apparatus was stopped 5 minutes after treatment and note was taken of the cardiac frequency every 10 seconds as well as of the period of time between the stopping of the apparatus and the appearance of the flat tracing on the electrocorticogram. This period of time represents the period of survival of the animal. The value of the cardiac frequency corresponding to moment of appearance of the flat tracing was calculated by extrapolation.
The same test was performed on control animals but without administration of a compound of the invention.

[3] = Rota rod test (neurotoxicity); assay type: in vivo; details: mouse, ip, mice, intraperitoneal, 30 min after administration, read-out: NTD50 (neurotoxic dose 50) in the rota rod test
Method: The test used was that known as the rota rod test (BOISSIER-Therapie 1958, XIII, pp. 1074-1118). This test aims at enabling the animals' ability to coordinate their movements to be evaluated. It is carried out on batches of 10 mice each weighing about 25 g. The compound to be tested is administered by intraperitoneal route to the animals of each batch so that each batch receives a higher dose than that given to the preceding batch. Thirty minutes after administration, the mice are placed for two minutes on a wooden roller of 4.8 cm diameter which turns at the rate of 4 revolutions per minute. The roller has a rough surface to prevent the animals from slipping.
By this means, the neurotoxic dose 50 (NTD 50) can be determined, i.e. the dose of the compound with which one half of the animals can no longer stay on the roller during the period of time fixed as the reference period.
In order to obtain an activity index figure 30 minutes after administration the rota rod test described above was also performed using for comparison a known myorelaxant, namely mephenesin.

mice [4] = experiment: Traction test (myorelaxant properties); assay type: in vivo, mice (OF 1)
Method: This test enables sense of balance as well as muscular tonus and strength to be evaulated.
The test is carried out on groups of 10 male mice of the OF 1 strain weighing about 25 g. It consists of suspending the mice by the front paws to a horizontally stretched wire. Note is first taken of the time required by a group of control animals to effect recovery i.e. to place at least one of their back paws on the wire.

Row | Structure (SMILES) | ED50 (mice [1]; 0.125 h, 7 min. 30 sec after administration) | ED50 (mice [1]; 0.25 h, 15 min. after administration) | ED50 (mice [1]; 0.5 h, 30 min. after administration) | ED50 (mice [2]) | Increase of period of survival versus controls (rats) | Period of survival (rats; controls 74.3 ± 2.3) | Cardiac frequency when the flat tracing appears (rats; controls 150, calculated by extrapolation) | Efficacy index (HD50 compared with ED50) (mice [2]; electroshock ED50 versus hypnotic dose 50) | TD50 at 0.5 h [3] | ED50 (mice [4]; Mus musculus, ip, 0.5 h, i.p., 30 min. after administration, read-out: ED50, loss of traction reflex) | Activity index: NTD50/ED50 (mice [4]; rota rod NTD50 / traction ED50, 30 minutes after administration)
1 | CCCC(CCC)(CCC)C(=O)O [Tri-n-propylacetic acid, tri-n-propylacetic acid] | 87 mg/kg | 72 mg/kg | 124 mg/kg | 145 mg/kg | 19% | 87.9 ± 3.7 s | 109 | – | – | – | –
2 | CCC1(c2ccccc2)C(=O)NC(=O)NC1=O [Phenobarbital, reference compound] | – | – | – | 78 mg/kg | – | – | – | 1.3 | – | – | –
3 | Cc1ccccc1OCC(O)CO (stereo not drawn) [Mephenesin, reference compound] | – | – | – | – | – | – | – | – | 100 mg/kg | 250 mg/kg | 0.4
